From patent US7358352B2, “Nucleic acids encoding human TNF-α convertase” (Schering Corporation, priority 1996, dated 2008)
Read-outs that look alike come from different tables or passages of the source. Each block holds one molecule with its values, some of them ahead of it. The star is where a group is joined. MeOSuc = COC(=O)CCC(=O)*; CH2Cl = ClC*

What was measured:
TNF-α convertases = assay: In vitro assays for TNF-α convertase activity (protease inhibitor profile); type: biochemical
Procedure: For the assay of convertase activity associated with or isolated from membrane preparations, a protein-based assay was carried out essentially as described by Mohler et al., Nature 370:218 (1995).
Briefly, a peptide-tagged recombinant human TNF-α protein substrate (Flag-TNF-α) was cloned and expressed in E. coli. The protein was purified by affinity chromatography using an M2 (anti-Flag)-Sepharose column (Kodak), and by ion exchange chromatography using a BIOCAD equipped with an HQ10 column.
To test for convertase activity, a membrane protein sample (12 μg) was mixed (in 12 μl) with 2 ng of ^125I-polypeptide substrate (approximately 50,000 cpm) in the presence of inhibitors of other proteolytic enzymes [e.g., 200 μM 4-(2-aminoethyl)-benzenesulfonyl fluoride hydrochloride (AEBSF), 2 μM pepstatin, 200 μM leupeptin, 1 mM methoxysuccinyl-Ala-Ala-Pro-Val-chloromethylketone (AAPV)], and with or without 2.5 mM EDTA. Following incubation at 37° C. overnight, samples were fractionated in a 16% sodium dodecylsulfate (SDS) gel and subjected to SDS polyacrylamide gel electrophoresis [SDS-PAGE; Laemmli, Nature 227:680 (1970)]. The gels were dried, and radioactivity was detected by autoradiography.
A polypeptide-based assay for TNF-α convertase activity was also carried out essentially using the method of Mohler et al., supra. Briefly, an amino-terminal dinitrophenylated peptide substrate, amidated at the carboxyl terminus (SEQ ID NO: 4) was synthesized and purified using standard procedures. Dinitrophenylated polypeptides corresponding to cleavage products expected for TNF-α convertase (a dinitrophenylated peptide having the sequence of residues 1-6 of SEQ ID NO: 4) and for other membrane proteases were also synthesized.
To test for convertase activity, a membrane protein sample was mixed in 50 μl with 1 μg peptide substrate in the presence of inhibitors (0.2 mM AEBSF, 2 μM pepstatin, 200 μM leupeptin, 1 mM AAPV). Following incubation at 37° C. for from 60 minutes to overnight, the protein was precipitated by cold 5% trichloroacetic acid (TCA), 20% acetonitrile, and the soluble peptide fraction was applied to a YMC 120 angstrom C-18 ODS-AQ column (4.6×100 mm; YMC, Inc.). The column was eluted isocratically at a flow rate of 1 ml/min using 40% acetonitrile plus 0.06% trifloroacetic acid. The elution of DNP-peptide was monitored at 360 nm using a Waters 625 LC system.

TNF-α secretion [1] = settings: in vitro; cited from earlier work
TNF-α secretion [2] = settings: in vivo; cited from earlier work
lethal dose of endotoxin = settings: mice; cited from earlier work
[3] = general property, concentration not given

Molecule: O=c1oc(Cl)c(Cl)c2ccccc12 [DCI, dichloroisocoumarin]
inhibition of TNF-α convertases (TNF-α convertases; 100 μM): Not inhibited

Molecule: CNC(=O)[C@H](Cc1ccccc1)NC(=O)[C@H](CC(C)C)[C@H](CSc1ccccc1)C(=O)NO [GI 129471]
block of TNF-α secretion (TNF-α secretion [1]): block TNF-α secretion
block of TNF-α secretion (TNF-α secretion [2]): block TNF-α secretion

Molecule: O=C(O)CI [IAA, iodoacetic acid]
inhibition of TNF-α convertases (TNF-α convertases; 1 mM): Not inhibited

Molecule: CC(C)CC(CC(=O)NO)C(=O)N[C@@H](Cc1ccc2ccccc2c1)C(=O)N[C@@H](C)C(=O)NCCN (stereo partly drawn) [N-{D,L-[2-(hydroxyaminocarbonyl)methyl]-4-methylpentanoyl}L-3-(2′naphthyl)-alanyl-L alanine, 2-aminoethyl amide]
protection against a lethal dose of endotoxin (lethal dose of endotoxin): protect mice against a lethal dose of endotoxin

Molecule: CC(C)C[C@H](NP(=O)(O)O[C@@H]1O[C@@H](C)[C@H](O)[C@@H](O)[C@H]1O)C(=O)N[C@@H](Cc1c[nH]c2ccccc12)C(=O)O [phosphoramidon]
inhibition of TNF-α convertases (TNF-α convertases; 300 μM): Not inhibited

Molecule: O=C(O)CNC(=O)C(CS)Cc1ccccc1 (centres unmarked) [thiorphan]
inhibition of TNF-α convertases (TNF-α convertases; 100 μM): Not inhibited

Molecule: methoxysuccinyl-Ala-Ala-Pro-Val-chloromethylketone (MeOSuc-AAPV-CH2Cl)
inhibition of TNF-α convertases (TNF-α convertases; 1 mM): Not inhibited

Continued, in another order:

inhibition of TNF-α convertases (TNF-α convertases; [3]): Inhibited
Molecule: O[C@H](CS)[C@H](O)CS (racemic) [DTT, dithiothreitol]

inhibition of TNF-α convertases (TNF-α convertases; 100 μM): Not inhibited
Molecule: CC(C)C[C@H](NC(=O)[C@H]1O[C@@H]1C(=O)O)C(=O)NCCCCN=C(N)N (relative stereo) [E64]

inhibition of TNF-α convertases (TNF-α convertases; [3]): Inhibited
Molecule: c1cnc2c(c1)ccc1cccnc12 [1,10-phenanthroline]

inhibition of TNF-α convertases (TNF-α convertases; [3]): Inhibited
Molecule: O=C(O)CN(CCN(CC(=O)O)CC(=O)O)CC(=O)O [EDTA, ethylenediaminetetraacetic acid]
band at the position of the 17 kDa human TNF-α cleavage product (SDS-PAGE autoradiography) (TNF-α convertases; membrane protein sample, 125I Flag-TNF-α substrate, with or without 2.5 mM EDTA, 37° C. overnight): intensified bands from the samples incubated without EDTA

inhibition of TNF-α convertases (TNF-α convertases; 100 μM): Not inhibited
Molecule: C[C@H](CS)C(=O)N1CCC[C@H]1C(=O)O [captopril]

inhibition of TNF-α convertases (TNF-α convertases; 1 μg/ml): Not inhibited
Molecule: TIMP-1: tissue inhibitor of metalloproteases-1

inhibition of TNF-α convertases (TNF-α convertases; [3]): Inhibited
Molecule: α-2 macroglobulin: protein protease inhibitor

inhibition of TNF-α convertases (TNF-α convertases; 1 μg/ml): Not inhibited
B1: SBTI: soybean trypsin inhibitor (protein, UniProt P01070 25-205, looked up)
Trypsin inhibitor A: DFVLDNEGNPLENGGTYYILSDITAFGGIRAAPTGNERCPLTVVQSRNELDKGIGTIISSPYRIRFIAEGHPLSLKFDSFAVIMLCVGIPTEWSVVEDLPEGPAVKIGENKDAMDGWFRLERVSDDEFNNYKLVFCPQQAEDDKCGDIGISIDHDDGTRRLVVSKNKPLVVQFQKLDKESL
